Tested on: NF-κB
Test: NF-κB assay for inflammation (nuclear translocation of NF-κB, immunocytochemistry, PCC)
Settings: HeLa cells, 40 nM, 2 h; PCC between nuclear and cytoplasmic fraction of NF-κB
Protocol: 15,000 HeLa cells were plated in 96 well plates the night before the experiments. On the day of the experiments, the cells were treated with the boronic acids (Table 1, below) at three different concentrations (40 nM, 80 nM, and 160 nM) for 2 h. At the end of the incubation, cells were washed with phosphate buffered saline (PBS) and were fixed in 4% paraformaldehyde for 15 min and permeablized with 0.01% Triton X-100 in PBS for 10 min. The cells were washed with PBS three times. Nonspecific sites were blocked with 5% bovine serum albumin (BSA) in PBS and incubated with the Anti-NF-κB for 1 h, followed by incubation with fluorescein isothiocyanate (FITC)-labeled secondary antibody. After washing the cells at the end of the incubation, the cells were treated with 4′,6-diamidino-2-phenylindole (DAPI) for 1 min and kept at 4° C. until further analysis. Images of the cells were acquired with a Beckman-Coulter 100 automated high-throughput microscope system and analyzed using Cytseer software (Vala Sciences, CA). The co-localization of NF-κB was quantified by measuring the PCC between the nuclear and cytoplasmic fraction of the NF-κB molecule. The PCC is a measure of the overlap between the pixel intensities of the nuclear and NF-κB images of the same cell. The PCC values can range from −1 to 1. […] A negative correlation (negative PCC value) indicates an absence of nuclear translocation.

Structure (SMILES)	Inflammation (PCC) 40 nM
OB(O)C1=CCCC1 [cyclopenten-1-yl boronic acid]	−0.0551
COc1cccc(OC)c1B(O)O [2,6-dimethoxyphenylboronic acid]	−0.0679
OB(O)c1cccc(OCc2ccccc2)c1 [3-(benzyloxy)phenylboronic acid]	−0.1159
OB(O)c1ccsc1 [3-thienylboronic acid]	−0.0062
O=Cc1ccoc1B(O)O [3-formylfuran-2-boronic acid]	−0.0012
OB(O)c1cc2cc(Br)ccc2s1 [5-bromobenzo-B-thophene-2boronic acid]	−0.0244
O=c1[nH]cc(B(O)O)c(=O)[nH]1 [uracil-5-boronic acid]	−0.0586
CCS(=O)(=O)c1ccc(B(O)O)cc1 [4-ethylsulfonyl-phenylboronic acid]	0.00184

Further lines, results first:

Inflammation (PCC) 40 nM	Structure (SMILES)
0.08644	OB(O)c1cc2ccccc2nc1Cl [2-chloro-3-quinolineboronic acid]
−0.1136	OB(O)c1cccc(O)c1 [3-hydroxyphenylboronic acid]
−0.1529	CN(C)S(=O)(=O)c1ccccc1B(O)O [2-(N,N-dimethylsulphamoyl)benzene-boronic acid]
0.02454	CC(=O)c1ccc(B(O)O)s1 [5-acetyl-2-thiopheneboronic acid]
−0.1318	CN(C)c1ccc(B(O)O)cc1 [4-(dimethylamino)phenylboronic acid]
−0.0198	OB(O)c1ccccc1O [2-hydroxyphenylboronic acid]
−0.1081	OB(O)c1cnn(Cc2ccccc2)c1 [1-benzyl-1H-pyrazole-4-boronic acid]

Same assay, conditions: HeLa cells, 80 nM, 2 h; PCC between nuclear and cytoplasmic fraction of NF-κB

Structure (SMILES)	Inflammation (PCC) 80 nM
OB(O)C1=CCCC1 [cyclopenten-1-yl boronic acid]	0.01168
COc1cccc(OC)c1B(O)O [2,6-dimethoxyphenylboronic acid]	0.03888
OB(O)c1cccc(OCc2ccccc2)c1 [3-(benzyloxy)phenylboronic acid]	0.0809
OB(O)c1ccsc1 [3-thienylboronic acid]	0.1457
O=Cc1ccoc1B(O)O [3-formylfuran-2-boronic acid]	0.0274
OB(O)c1cc2cc(Br)ccc2s1 [5-bromobenzo-B-thophene-2boronic acid]	−0.01
O=c1[nH]cc(B(O)O)c(=O)[nH]1 [uracil-5-boronic acid]	0.00516
CCS(=O)(=O)c1ccc(B(O)O)cc1 [4-ethylsulfonyl-phenylboronic acid]	0.1802

Second part, the compound after the results:

Inflammation (PCC) 80 nM	Structure (SMILES)
0.05095	OB(O)c1cc2ccccc2nc1Cl [2-chloro-3-quinolineboronic acid]
0.04005	OB(O)c1cccc(O)c1 [3-hydroxyphenylboronic acid]
−0.0404	CN(C)S(=O)(=O)c1ccccc1B(O)O [2-(N,N-dimethylsulphamoyl)benzene-boronic acid]
0.06312	CC(=O)c1ccc(B(O)O)s1 [5-acetyl-2-thiopheneboronic acid]
−0.0051	CN(C)c1ccc(B(O)O)cc1 [4-(dimethylamino)phenylboronic acid]
−0.0878	OB(O)c1ccccc1O [2-hydroxyphenylboronic acid]
−0.0841	OB(O)c1cnn(Cc2ccccc2)c1 [1-benzyl-1H-pyrazole-4-boronic acid]

Same assay, conditions: HeLa cells, 160 nM, 2 h; PCC between nuclear and cytoplasmic fraction of NF-κB

Structure (SMILES)	Inflammation (PCC) 160 nM
OB(O)C1=CCCC1 [cyclopenten-1-yl boronic acid]	0.1634
COc1cccc(OC)c1B(O)O [2,6-dimethoxyphenylboronic acid]	0.2607
OB(O)c1cccc(OCc2ccccc2)c1 [3-(benzyloxy)phenylboronic acid]	0.3768
OB(O)c1ccsc1 [3-thienylboronic acid]	0.05963
O=Cc1ccoc1B(O)O [3-formylfuran-2-boronic acid]	0.08621
OB(O)c1cc2cc(Br)ccc2s1 [5-bromobenzo-B-thophene-2boronic acid]	0.1265
O=c1[nH]cc(B(O)O)c(=O)[nH]1 [uracil-5-boronic acid]	−0.01522
CCS(=O)(=O)c1ccc(B(O)O)cc1 [4-ethylsulfonyl-phenylboronic acid]	0.129

Next, values leading:

Inflammation (PCC) 160 nM	Structure (SMILES)
0.193	OB(O)c1cc2ccccc2nc1Cl [2-chloro-3-quinolineboronic acid]
0	OB(O)c1cccc(O)c1 [3-hydroxyphenylboronic acid]
0.03422	CN(C)S(=O)(=O)c1ccccc1B(O)O [2-(N,N-dimethylsulphamoyl)benzene-boronic acid]
0.2343	CC(=O)c1ccc(B(O)O)s1 [5-acetyl-2-thiopheneboronic acid]
0.213	CN(C)c1ccc(B(O)O)cc1 [4-(dimethylamino)phenylboronic acid]
0.08884	OB(O)c1ccccc1O [2-hydroxyphenylboronic acid]
0.03839	OB(O)c1cnn(Cc2ccccc2)c1 [1-benzyl-1H-pyrazole-4-boronic acid]

Tested on: HeLa cells
Test: MTT assay for cytotoxicity
Settings: 40 nM, 2 h
Protocol: The cytotoxicity of the boronic acid derivatives from Table 1 was studied by MTT assay. 150,000 HeLa cells were plated in 96 well plates on the night before the experiments. On the day of experiments, the cells were treated with the boronic acid derivatives at three different concentrations (40 nM, 80 nM, and 160 nM) for 2 h. At the end of the incubation, MTT assays (In-Vitro toxicology MTT based assay kit, Sigma Aldrich, MO) were performed according to the manufacturer's protocol.

Structure (SMILES)	MTT (% Cell Survival) 40 nM
OB(O)C1=CCCC1 [cyclopenten-1-yl boronic acid]	99.21%
OB(O)c1cc2ccccc2nc1Cl [2-chloro-3-quinolineboronic acid]	30.1105%
OB(O)c1cccc(O)c1 [3-hydroxyphenylboronic acid]	104.60%
COc1cccc(OC)c1B(O)O [2,6-dimethoxyphenylboronic acid]	92.66%
OB(O)c1cccc(OCc2ccccc2)c1 [3-(benzyloxy)phenylboronic acid]	99.83%
OB(O)c1ccsc1 [3-thienylboronic acid]	90.42%
CN(C)S(=O)(=O)c1ccccc1B(O)O [2-(N,N-dimethylsulphamoyl)benzene-boronic acid]	74.92%
O=Cc1ccoc1B(O)O [3-formylfuran-2-boronic acid]	107.84%
CC(=O)c1ccc(B(O)O)s1 [5-acetyl-2-thiopheneboronic acid]	84.50%
OB(O)c1cc2cc(Br)ccc2s1 [5-bromobenzo-B-thophene-2boronic acid]	71.83%
O=c1[nH]cc(B(O)O)c(=O)[nH]1 [uracil-5-boronic acid]	68.5083%
CN(C)c1ccc(B(O)O)cc1 [4-(dimethylamino)phenylboronic acid]	78.59%
CCS(=O)(=O)c1ccc(B(O)O)cc1 [4-ethylsulfonyl-phenylboronic acid]	67.61%
OB(O)c1ccccc1O [2-hydroxyphenylboronic acid]	70.3314%
OB(O)c1cnn(Cc2ccccc2)c1 [1-benzyl-1H-pyrazole-4-boronic acid]	100.88%

Same assay, conditions: 80 nM, 2 h

Structure (SMILES)	MTT (% Cell Survival) 80 nM
OB(O)C1=CCCC1 [cyclopenten-1-yl boronic acid]	79.90%
OB(O)c1cc2ccccc2nc1Cl [2-chloro-3-quinolineboronic acid]	44.7882%
OB(O)c1cccc(O)c1 [3-hydroxyphenylboronic acid]	62.75%
COc1cccc(OC)c1B(O)O [2,6-dimethoxyphenylboronic acid]	78.05%
OB(O)c1cccc(OCc2ccccc2)c1 [3-(benzyloxy)phenylboronic acid]	71.94%
OB(O)c1ccsc1 [3-thienylboronic acid]	80.00%
CN(C)S(=O)(=O)c1ccccc1B(O)O [2-(N,N-dimethylsulphamoyl)benzene-boronic acid]	76.38%
O=Cc1ccoc1B(O)O [3-formylfuran-2-boronic acid]	73.72%
CC(=O)c1ccc(B(O)O)s1 [5-acetyl-2-thiopheneboronic acid]	82.81%
OB(O)c1cc2cc(Br)ccc2s1 [5-bromobenzo-B-thophene-2boronic acid]	81.40%
O=c1[nH]cc(B(O)O)c(=O)[nH]1 [uracil-5-boronic acid]	50.3499%
CN(C)c1ccc(B(O)O)cc1 [4-(dimethylamino)phenylboronic acid]	71.75%
CCS(=O)(=O)c1ccc(B(O)O)cc1 [4-ethylsulfonyl-phenylboronic acid]	66.47%
OB(O)c1ccccc1O [2-hydroxyphenylboronic acid]	55.8039%
OB(O)c1cnn(Cc2ccccc2)c1 [1-benzyl-1H-pyrazole-4-boronic acid]	62.54%

Same assay, conditions: 160 nM, 2 h

Structure (SMILES)	MTT (% Cell Survival) 160 nM
OB(O)C1=CCCC1 [cyclopenten-1-yl boronic acid]	68.16%
OB(O)c1cc2ccccc2nc1Cl [2-chloro-3-quinolineboronic acid]	32.43%
OB(O)c1cccc(O)c1 [3-hydroxyphenylboronic acid]	89.29%
COc1cccc(OC)c1B(O)O [2,6-dimethoxyphenylboronic acid]	48.60%
OB(O)c1cccc(OCc2ccccc2)c1 [3-(benzyloxy)phenylboronic acid]	28.92%
OB(O)c1ccsc1 [3-thienylboronic acid]	49.85%
CN(C)S(=O)(=O)c1ccccc1B(O)O [2-(N,N-dimethylsulphamoyl)benzene-boronic acid]	47.32%
O=Cc1ccoc1B(O)O [3-formylfuran-2-boronic acid]	65.18%
CC(=O)c1ccc(B(O)O)s1 [5-acetyl-2-thiopheneboronic acid]	51.27%
OB(O)c1cc2cc(Br)ccc2s1 [5-bromobenzo-B-thophene-2boronic acid]	90.42%
O=c1[nH]cc(B(O)O)c(=O)[nH]1 [uracil-5-boronic acid]	28.07%
CN(C)c1ccc(B(O)O)cc1 [4-(dimethylamino)phenylboronic acid]	51.04%
CCS(=O)(=O)c1ccc(B(O)O)cc1 [4-ethylsulfonyl-phenylboronic acid]	37.46%
OB(O)c1ccccc1O [2-hydroxyphenylboronic acid]	53.64%
OB(O)c1cnn(Cc2ccccc2)c1 [1-benzyl-1H-pyrazole-4-boronic acid]	86.11%
